Data from article PMC5537589, “A peptide-based viral inactivator inhibits Zika virus infection in pregnant mice and fetuses” (Nature Communications, 2017).
Where no end group is shown, it is not given here.

How the values were obtained:
[1] = system: ZIKV-infected BHK21 cells; type: binding, Zika virus; settings: peer review file
Method: Supplementary Figure 4: Binding of Z2-Cy5 to ZIKV-infected BHK21 cells. (a) Immunofluorescence staining assay.
Scale bar = 100 μm. (b) Flow cytometry assay. After the incubation of ZIKV or mock infected BHK21 cells with Z2-Cy5, the cells were washed five times and processed by a BD Accuri C6 Flow Cytometer.
BHK21 cells. As shown in Supplementary Figure 4, E protein (green, stained by anti-E mAb 4G2) and Z2-Cy5 (red) overlapped and colocated together (Supplementary Figure 4A). In the flow cytometry assay (Supplementary Figure 4B), Z2-Cy5 bound with 63.5% […]
ZIKV-infected BHK21 cells.
Supplementary Figure 4: Binding of Z2-Cy5 to ZIKV-infected BHK21 cells. (A) […]
Scale bar = 100 μm. (B) Flow cytometry assay. After the incubation of ZIKV- or mock- […]
The result was added to the revised manuscript: “Similar results were […]
obtained from ZIKV-infected BHK21cells (Supplementary Figure 4).”
The related methods were added in the revised manuscript:
“To test the binding of Z2 to ZIKV- infected BHK21 cells, BHK21 cells seeded in cover slips were ZIKV or mock infected, fixed with 4 % PFA, perforated by 0.2% Triton X-100 and blocked with 3% BSA. The cells were then incubated with anti-E mAb 4G2.
After 5 washes, the cells were incubated with Alexa Fluor 488-labeled donkey anti-mouse antibody and Z2-Cy5 at RT for 1 h. […]

[2] = In vivo fluorescence imaging of distribution in pregnant ICR mice and fetuses
YFV 17D = settings: read-out: IC50, inhibition of YFV 17D infection; BHK21 cells
DENV-2 = settings: 12 h
ZIKV = assay: Plaque reduction assay in BHK21 cells; type: cell-based, Zika virus; settings: n=3
Method: Supplementary Figure 2: Plaque reduction assay to determine ZIKV infection in BHK21 cells. (a) Plaque reduction assay for Z2. ZIKV was incubated with Z2 or Z2-scr in diﬀerent concentrations for 1.5 h. Then the mixture was added to BHK21 cells seeded in 6-well plates. After 1.5 h, the viral inoculum was removed and 2.5 ml DMEM with 2% FBS and 1% low melting-point agarose overlaid the cells. Four to five days later, the cells were fixed with 4% PFA and stained with 1% crystal violet overnight. (b) Plaque reduction curves. Plaques were counted and percentage of plaque reduction was […]

ZIKV virions = assay: Sucrose density gradient assay; settings: 100 μM peptide in 1% DMSO or 1% Triton X-100, 37 °C 2 h
[3] = 100 μg Z2-Cy5 i.v.; male ICR mice
in vivo = settings: SD, rat, iv, 10 mg kg-1
[4] = SD rats, n=3, serum
BHK21 cells = settings: concentration as high as 50 μM, 24 h, 37 °C, CCK8
[5] = Safety of Z2 for pregnant ICR mice and fetuses; type: in vivo
[6] = rat, in vivo, iv, 10 mg/kg
Huh7 cells = settings: concentration as high as 50 μM, 24 h, 37 °C, CCK8
mouse red blood cells = settings: concentration as high as 100 μM; 2% mouse RBC, 1 h, 37 °C; A560
Vero cells = settings: concentration as high as 50 μM, 24 h, 37 °C, CCK8
[7] = 10-120 mg kg−1 i.v., before and 4 h, 1, 3, 5 days after third injection, P>0.05

Z2-Cy5: Z2 labeled with Cy5 (MAVLGDTAWDFGSVGGALNSLGKGIHQIFGAAF; also: Cy5 label, site not given here)
ZIKV-infected BHK21 cells bound by Z2-Cy5 (flow cytometry) [1]: 63.5% | average radiant efficiency in uteruses versus PBS ([2]; 100 μg i.v., 1 h, P=0.0148): significantly higher | average radiant efficiency in liver versus PBS ([2]; 100 μg i.v., 1 h, P=0.0275): significantly higher | average radiant efficiency in bladder versus PBS ([2]; 100 μg i.v., 1 h, P=0.0426): significantly higher | average radiant efficiency in fetuses versus PBS ([2]; 100 μg i.v., 1 h, n=9 fetuses, P<0.0001): significantly higher

MAVLGDTAWDFGSVGGALNSLGKGIHQIFGAAF [Z2] [listing 1 of 2 here]
IC50 (YFV 17D): ~5 µM | IC50 (DENV-2): ~4 µM | IC50 (ZIKV): 2.61 ± 0.46 µM

Triton X-100
fraction with peak of viral genomic RNA (ZIKV virions; RT-qPCR): 1 fraction No. | fraction with peak of E protein (ZIKV virions; western blot): 7 fraction No.

MAVLGDTAWDFGSVGGALNSLGKGIHQIFGAAF [Z2] [listing 2 of 2 here]
distribution to genital organs (testis, seminal vesicle, epididymis) [3]: could distribute to the genital organs | half-life (in vivo): 2.77 h | Kel, elimination constant ([4]; 10 mg kg-1 i.v. tail vein, LC-MS/MS, noncompartmental): 0.250 h⁻¹ | Cmax ([4]; 10 mg kg-1 i.v., concentration data dose-normalized): 754.6 ng/mL | cytotoxic effect (BHK21 cells): no cytotoxic effect | average litter size of the offspring ([5]; 10 mg kg−1 i.v. daily for 3 days, n=5, PBS 10.4±1.5): 10.2±1.6 | average litter size of the offspring ([5]; 20 mg kg−1 i.v. daily for 3 days, n=6): 10.5±2.0 | average litter size of the offspring ([5]; 40 mg kg−1 i.v. daily for 3 days, n=5): 10.4±2.1 | average litter size of the offspring ([5]; 80 mg kg−1 i.v. daily for 3 days, n=5): 10.6±1.1 | average litter size of the offspring ([5]; 120 mg kg−1 i.v. daily for 3 days, n=5): 10.8±2.6 | safe dose relative to dose protecting against ZIKV in vivo ([5]; 120 mg kg−1 versus 10 mg kg−1): 11 fold | serum ALT versus PBS group [5, 7]: no significant difference | serum creatinine versus PBS group [5, 7]: no significant difference | histopathology (H&E) of livers, kidneys, brains, spleens of mothers and pups ([5]; 10-120 mg kg−1 i.v., versus PBS): no pathological abnormality | body weight changes of mothers and pups ([5]; i.v. 10, 20, 40, 80, 120 mg kg−1 daily for 3 days versus PBS): almost the same among the six groups | AUC(0-inf) [6]: 557 ng·h/mL | AUC(0-t) [6]: 548 ng·h/mL | Tmax [6]: 0.25 h | cytotoxic effect (Huh7 cells): no cytotoxic effect | cytotoxic effect on red blood cells (hemoglobin release) (mouse red blood cells): no cytotoxic effect | cytotoxic effect (Vero cells): no cytotoxic effect | penetration of the placental barrier ([2]; injected intravenously or intraperitoneally, pregnant ICR mice): can penetrate through the placental barrier
